# Laboratory results: PMC9953746, “Dimeric Benzodiazepines as Peptide Mimetics to Overcome p53-Dependent Drug Resistance of Tumors” (Biomolecules, 2023)
# Read-outs that look alike come from different tables or passages of the source. Marks after values point to notes of the source that are not given here.
# Tests used:
# solid tumors = tested on: solid tumors; parameters: method as in PMID 4959850; settings: cited from earlier work
# HCT116 p53^−/− cells = test: IncuCyte live-cell imaging, cell proliferation and death assay, HCT116p53-/-; format: cell-based, human; settings: 40 µM; for confluence, HCT116p53^−/−: up to 72 h, untreated 88%, DMSO 83% on the third day; for time at which cell death starts to increase significantly, HCT116p53^−/−: SYTOX Green Dead Cell Stain
# Text: (§1) The cell proliferation and death were estimated in the IncuCyte S3 live-cell imaging system using the SYTOX™ Green Dead Cell Stain (Thermo, cat. no: S34860) and analyzed using the IncuCyte 2019B Rev2 software (Essen BioScience, Ann Arbor, MI, USA), according to the manufacturer’s instructions (https://www.sartorius.com/en/products/live-cell-imaging-analysis/live-cell-analysis-resources/live-cell-imaging-and-analsis-handbook (accessed on 21 October 2022)). The HCT116 and HCT116 p53^−/− cells were seeded in 96-well culture plates at a density of 5000 cells per well 24 h before the treatment. Four wells were considered for each experimental point. Treatments with 10, 11, cisplatin (40 μM), or dimethyl sulfoxide (which was used as a negative control at a concentration equal to the one used to dissolve 10 and 11) were carried out for up to 72 h, and images were recorded every 2 h during this time. The experiment was performed twice.
# [1] = tested on: colorectal carcinoma HCT116p53^−/−; test: MTT cell viability assay, HCT116p53-/-; format: cell-based, human; settings: for IC50: 72 h, read-out: IC50 HCT116p53^−/− (colon cancer); for SI index: IC50 HCT116p53^−/−/IC50 HCT116: ratio of p53 knockout to wild-type HCT116
# Text: (§2) The following cell lines were used in this study: epidermoid carcinoma A-431 (ATCC® CRL-1555), lung carcinomas A549 (ATCC® CCL-185) and NCI-H1299 (ATCC® CRL-5803), colorectal carcinomas HCT116 (ATCC® CCL-247) and HCT116p53^−/−, normal skin fibroblasts BJ (ATCC® CRL-2522), and normal lung fibroblasts MRC-5 (ATCC® CCL-171). The HCT116 p53^−/− cell line was a kind gift from Professor Bert Vogelstein (John Hopkin’s University, Baltimore, MD, USA). The remaining cell lines were purchased from ATCC (Manassas, VA, USA). The cells were cultured in minimal, Dulbecco’s modified Eagle’s, or Ham’s F-12K medium supplemented with 10% fetal bovine serum (Gibco by Thermo Fisher Scientific, Waltham, MA, USA) and grown under standard culture conditions (37°C, 5% CO2) in a humidified incubator with an oxygen concentration of 21%. All of the experiments were performed with mycoplasma-free cells.
# (§3) The viability of the cells was assayed by measuring the conversion of MTT (3-(4,5-dimethylthiazol-2-yl)-2,5-diphenyltetrazolium bromide) to formazan (the rate of this reaction is proportional to the number of surviving cells). The cells were seeded in 96-well culture plates at a density of 3500–5000 cells per well 24 h before the treatment. Six wells were considered for each experimental point (technical repeats). Treatments with increasing concentrations of 10, 11, or cisplatin (0.6–80 μM) were performed for 72 h. The MTT stock solution (Sigma-Aldrich by Merck, Darmstadt, Germany) was added at a final concentration of 0.5 mg/mL. After 4 h of incubation at 37 °C, the water-insoluble formazan was dissolved in a lysis buffer containing 20% SDS, 50% DMF, 2.5% hydrochloric acid, and 2.5% acetic acid. The optical densities were measured at 570 nm using a scanning multi-well spectrophotometer (PARADIGM Detection Platform; Beckman Coulter, Brea, CA, USA). The ratio of the absorbance value of each tested group to the absorbance value of the untreated control was calculated, and each tested group’s cell viability was expressed as a percentage of the control. The cell viability assays were performed at least in triplicate using independent cell cultures.
# [2] = tested on: normal skin fibroblasts BJ; test: MTT cell viability assay, BJ; format: cell-based, human; settings: 72 h, read-out: IC50 BJ (normal skin)
# Text: as §2
# as §3, with “The cell viability assays were performed at least in triplicate using independent cell cultures.” left out
# [3] = tested on: colorectal carcinoma HCT116; test: MTT cell viability assay, HCT116; format: cell-based, human; settings: read-out: IC50 HCT116 (colon cancer)
# Text: as §2
# as §3, with “The cell viability assays were performed at least in triplicate using independent cell cultures.” left out
# HCT116 cells = test: IncuCyte live-cell imaging, cell proliferation and death assay, HCT116; format: cell-based, human; settings: 40 µM; for time at which cell death starts to increase significantly, HCT116: SYTOX Green Dead Cell Stain; for confluence, HCT116: up to 72 h, untreated 90%, DMSO 84% on the third day
# Text: as §1
# lung carcinoma A549 = test: MTT cell viability assay, A549; format: cell-based, human; settings: for IC50: read-out: IC50 A549 (lung cancer)
# Text: as §2, §3
# [4] = tested on: normal lung fibroblasts MRC-5; test: MTT cell viability assay, MRC-5; format: cell-based, human; settings: read-out: IC50 MRC-5 (normal lung)
# Text: as §2, §3
# [5] = tested on: epidermoid carcinoma A-431; test: MTT cell viability assay, A-431; format: cell-based, human; settings: for IC50: read-out: IC50 A-431 (epidermoid cancer); for SI index: IC50 BJ/IC50 A-431: selectivity index, normal skin BJ vs A-431
# Text: as §2, §3
# lung carcinoma NCI-H1299 = test: MTT cell viability assay, NCI-H1299; format: cell-based, human; settings: for IC50: read-out: IC50 NCI-H1299 (lung cancer)
# Text: as §2, §3
# MDA-MB-435 = tested on: MDA-MB-435; parameters: method as in PMID 26594756, PMID 32095421; settings: in vitro; cited from earlier work
# HCT-116 = tested on: HCT-116; parameters: method as in PMID 26594756, PMID 32095421; settings: in vitro; cited from earlier work
# HepG2 = tested on: HepG2; parameters: method as in PMID 26594756, PMID 32095421; settings: in vitro; cited from earlier work
# Calu-3 = tested on: Calu-3; parameters: method as in PMID 26594756, PMID 32095421; settings: in vitro; cited from earlier work
# normal IKHE cell line = tested on: normal IKHE cell line; parameters: method as in PMID 26594756, PMID 32095421; settings: in vitro; cited from earlier work
# [6] = tested on: Heps (liver cancer) cell line; parameters: method as in earlier work; settings: cited from earlier work
# Sarcoma 180 = tested on: Sarcoma 180; parameters: method as in earlier work; settings: cited from earlier work
# [7] = ratio of IC50 values vs cisplatin
compound,measurement,setting,value
"Cc1ccc2c(c1O)NC(O)C1CC(/C=C/C(N)=O)=CN1C2=O (centres unmarked) [Anthramycin, anthramycin]",growth of solid tumors in mice,solid tumors,inhibited the growth of solid tumors in mice
"N.N.[Cl][Pt][Cl] [Cisplatin, cisplatin, reference compound]","time to plateau of cell death, HCT116p53^−/−",HCT116 p53^−/− cells,about 72 h
same,"cell death level (SYTOX Green positive cells) at plateau, HCT116p53^−/−",HCT116 p53^−/− cells; after about 72 h,5116.3 ± 211.41
same,"confluence, HCT116p53^−/−",HCT116 p53^−/− cells,up to 16%
same,IC50,"[1]; MTT, mean ± SD, n = 3",10.8 ± 2.86 µM
same,SI index: IC50 HCT116p53^−/−/IC50 HCT116,[1],3.18 ± 0.79 (*) ^c
same,IC50,"[2]; MTT, mean ± SD, n = 3",5.06 ± 0.94 µM
same,IC50,"[3]; MTT, 72 h, mean ± SD, n = 3",3.51 ± 1.16 µM
same,"time of highest number of SYTOX Green positive cells, HCT116",HCT116 cells,48 h
same,"time at which cell death starts to increase significantly, HCT116",HCT116 cells,18 h
same,"confluence, HCT116",HCT116 cells,up to 16%
same,IC50,"lung carcinoma A549; MTT, 72 h, mean ± SD, n = 3",5.95 ± 1.28 µM
same,IC50,"[4]; MTT, 72 h, mean ± SD, n = 3",4.17 ± 0.88 µM
same,IC50,"[5]; MTT, 72 h, mean ± SD, n = 3",1.56 ± 0.29 µM
same,SI index: IC50 BJ/IC50 A-431,[5],3.26 ± 0.41 (**) ^c
same,SI index: IC50 BJ/IC50 A-431,[5]; listed as cisplatin,3.26 ± 0.41
same,IC50,"lung carcinoma NCI-H1299; MTT, 72 h, mean ± SD, n = 3",5.7 ± 0.88 µM
"O=C1NC(CSCSCC2NC(=O)c3cc([N+](=O)[O-])ccc3NC2=O)C(=O)Nc2ccc([N+](=O)[O-])cc21 (centres unmarked) [Compound 10, 3,3′-((methylenebis(sulfanediyl))bis(methylene))bis(7-nitro-3,4-dihydro-1H-benzo[e][1,4]diazepine-2,5-dione)]","time at which cell death starts to increase significantly, HCT116p53^−/−",HCT116 p53^−/− cells,24 h
same,"confluence, HCT116p53^−/−",HCT116 p53^−/− cells,up to 16%
same,IC50,"[1]; Homo sapiens, MTT, mean ± SD, n = 3",5.56 ± 0.74 µM
same,SI index: IC50 HCT116p53^−/−/IC50 HCT116,[1],1.05 ± 0.19 (ns) ^c (*) ^b
same,IC50,"[2]; Homo sapiens, Skin fibroblast, MTT, mean ± SD, n = 3",16.7 ± 2.77 µM
same,IC50,"[3]; Homo sapiens, HCT-116, MTT, 72 h, mean ± SD, n = 3",5.31 ± 0.23 µM
same,"time at which cell death starts to increase significantly, HCT116",HCT116 cells,24 h
same,"confluence, HCT116",HCT116 cells,up to 16%
same,IC50,"lung carcinoma A549; Homo sapiens, A549, MTT, 72 h, mean ± SD, n = 3",1.6 ± 0.21 µM
same,"times more cytotoxic than cisplatin, A549",lung carcinoma A549; [7],3.72 times
same,IC50,"[4]; Homo sapiens, MRC5, 72 h, MTT, 72 h, mean ± SD, n = 3",16.9 ± 2.96 µM
same,IC50,"[4]; MTT, 72 h, mean ± SD, n = 3",16.9 ± 2.96 µM
same,IC50,"[5]; Homo sapiens, A-431, MTT, 72 h, mean ± SD, n = 3",3.47 ± 0.32 µM
same,SI index: IC50 BJ/IC50 A-431,[5],4.88 ± 1.08 (**) ^c (ns) ^b
same,IC50,"lung carcinoma NCI-H1299; Homo sapiens, NCI-H1299, MTT, 72 h, mean ± SD, n = 3",1.07 ± 0.25 µM
same,"times more cytotoxic than cisplatin, NCI-H1299",lung carcinoma NCI-H1299; [7],5.33 times
"O=C1NC(CSCSCC2NC(=O)c3ccc([N+](=O)[O-])cc3NC2=O)C(=O)Nc2cc([N+](=O)[O-])ccc21 (centres unmarked) [Compound 11, 3,3′-((methylenebis(sulfanediyl))bis(methylene))bis(8-nitro-3,4-dihydro-1H-benzo[e][1,4]diazepine-2,5-dione)]","time at which cell death starts to increase significantly, HCT116p53^−/−",HCT116 p53^−/− cells,36 h
same,"confluence, HCT116p53^−/−",HCT116 p53^−/− cells,up to 16%
same,IC50,[1]; Homo sapiens,6.07 ± 0.9 µM
same,SI index: IC50 HCT116p53^−/−/IC50 HCT116,[1],1.26 ± 0.3 (ns) ^c (*) ^b
same,IC50,"[2]; Homo sapiens, Skin fibroblast",23.1 ± 2.34 µM
same,IC50,"[3]; Homo sapiens, HCT-116, 72 h",4.9 ± 0.53 µM
same,"time at which cell death starts to increase significantly, HCT116",HCT116 cells,36 h
same,"confluence, HCT116",HCT116 cells,up to 16%
same,IC50,"lung carcinoma A549; Homo sapiens, A549, 72 h",16.3 ± 4.65 µM
same,SI index: IC50 MRC-5/IC50 A549,"lung carcinoma A549; selectivity index, normal lung MRC-5 vs A549",1.86 ± 0.79 (ns) ^c (ns) ^b
same,IC50,"[4]; Homo sapiens, MRC5, 72 h",28.7 ± 7.6 µM
same,IC50,"[5]; Homo sapiens, A-431, 72 h",3.97 ± 0.87 µM
same,IC50,"lung carcinoma NCI-H1299; Homo sapiens, NCI-H1299, 72 h",4.91 ± 1.45 µM
N#CCC[C@H]1NC(=O)c2ccccc2-n2c1nc1ccccc1c2=O [auranthine],cytotoxic activity against MDA-MB-435,MDA-MB-435,no cytotoxic activities
same,cytotoxic activity against HCT-116,HCT-116,no cytotoxic activities
same,cytotoxic activity against HepG2,HepG2,no cytotoxic activities
same,cytotoxic activity against Calu-3,Calu-3,no cytotoxic activities
same,cytotoxic activity against normal IKHE,normal IKHE cell line,no cytotoxic activities
CN1c2ccccc2C(=O)n2c3ccccc3c3ccnc1c32 [evodiagenine],cytotoxic activity against Heps (liver cancer),[6],exhibits cytotoxic activity
same,cytotoxic activity against Sarcoma 180,Sarcoma 180,exhibits cytotoxic activity
